Measured values: ChEMBL document CHEMBL1201862, “PubChem BioAssay data set” (2004)
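These data come from cells grown in 96-well plates and exposed to compound for 48 hours at five concentrations. GI50: concentration for 50% inhibition of growth.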 Activity calls are given as the source filed them. No stated cut-off is given here; in the data, active = GI50 up to about 1.1 µM and inactive = higher.

Legend:
Assay in all cases: growth of human tumour cells (NCI), 48 h
[1] = system: EKVX
[2] = system: PC-3
[3] = system: Hs-578T
[4] = system: NCI-H522
[5] = system: MDA-N
[6] = system: M14
[7] = system: SNB-19
[8] = system: HOP-62
[9] = system: DU-145
[10] = system: MDA-MB-231
[11] = system: K562
[12] = system: UACC-257
[13] = system: 786-0
[14] = system: KM12
[15] = system: UACC-62
[16] = system: RPMI-8226
[17] = system: SF-295
[18] = system: A549
[19] = system: SF-539
[20] = system: MOLT-4

Measured: GI50

Cc1csc(NNC(=O)Nc2ccccc2)n1
inactive: [1] > 100 µM | [2] > 100 µM | [3] > 100 µM | [4] > 100 µM | [5] > 100 µM | [6] > 100 µM | [7] > 100 µM | [8] > 100 µM | [9] > 100 µM | [10] > 100 µM | [11] > 100 µM | [12] > 100 µM | [13] > 100 µM | [14] > 100 µM | [15] > 100 µM | [16] > 100 µM | [17] > 100 µM | [18] > 100 µM | [19] > 100 µM

O=c1/c(=C/c2ccc([N+](=O)[O-])o2)sc2n1[C@@H](c1ccc(Cl)cc1)C=C(c1cc(F)c(Cl)cc1Cl)N=2
inactive: [2] 11.5 µM | [3] 56.5 µM | [4] 18.3 µM | [5] 4.65 µM | [6] 14.6 µM | [20] 12.9 µM | [7] 15.9 µM | [8] 11.5 µM | [9] 17.7 µM | [10] 5.07 µM | [11] 13.2 µM | [12] 15.4 µM | [13] 4.71 µM | [14] 24.5 µM | [15] 14.8 µM | [16] 5.16 µM | [17] 21.3 µM | [18] 30.3 µM | [19] 22.4 µM

Brc1c(C#CCC2CCCCC2)ccc(C#CCC2CCCCC2)c1Br
inactive: [1] > 100 µM | [2] > 100 µM | [3] > 100 µM | [4] > 100 µM | [5] > 100 µM | [6] > 100 µM | [20] > 100 µM | [7] > 100 µM | [9] > 100 µM | [10] > 100 µM | [11] > 100 µM | [12] > 100 µM | [13] > 100 µM | [14] > 100 µM | [15] > 100 µM | [16] > 100 µM | [17] > 100 µM | [18] > 100 µM | [19] > 100 µM

COCN1C(=O)[C@@H]2CCCN2C(=O)c2ccc(Cl)cc21
inactive: [1] > 100 µM | [2] > 100 µM | [3] > 100 µM | [4] > 100 µM | [5] > 100 µM | [6] > 100 µM | [20] > 100 µM | [7] > 100 µM | [8] > 100 µM | [9] > 100 µM | [10] > 100 µM | [11] > 100 µM | [12] > 100 µM | [13] > 100 µM | [14] > 100 µM | [15] > 100 µM | [16] > 100 µM | [17] > 100 µM | [18] > 100 µM

O=c1cc(NNc2cccc(F)c2)[nH]c(=O)[nH]1
inactive: [2] > 100 µM | [3] 83 µM | [4] 18.3 µM | [5] 80.2 µM | [6] 18.2 µM | [20] 27.9 µM | [7] > 100 µM | [8] > 100 µM | [9] > 100 µM | [10] 16.7 µM | [11] 27.3 µM | [12] 17.9 µM | [13] 16.6 µM | [14] > 100 µM | [15] 35 µM | [16] 16.7 µM | [17] > 100 µM | [18] > 100 µM | [19] 38.9 µM

COc1cc(OC)cc(OCc2ccc3nc(-c4ccccc4)c(Cl)nc3c2)c1
inactive: [1] 27 µM | [2] 37.6 µM | [3] 27.3 µM | [4] 5.05 µM | [5] 44.1 µM | [6] > 100 µM | [20] 25.9 µM | [7] 25.9 µM | [8] 16.7 µM | [9] 52.7 µM | [10] 7.16 µM | [12] > 100 µM | [13] 9.89 µM | [14] 58.3 µM | [15] 32.4 µM | [16] 33.4 µM | [17] 22.5 µM | [18] 49.9 µM | [19] 18.4 µM

COc1ccccc1/[N+]([O-])=C/c1ccccc1OC(=S)S
inactive: [1] 30.4 µM | [2] 34 µM | [3] 73.6 µM | [4] 22.3 µM | [5] 17.7 µM | [6] 41.1 µM | [20] 27.5 µM | [7] 99.3 µM | [9] 70.5 µM | [10] 30.9 µM | [11] 29.5 µM | [12] 28.1 µM | [13] 26.5 µM | [14] 47.6 µM | [15] 32.9 µM | [16] 21.8 µM | [17] 32.2 µM | [18] > 100 µM | [19] 57.1 µM
